# Marks after values point to notes of the source that are not given here.
# What was measured:
# [1] = tested on: sucrose challenged Streptozotocin induced diabetic rats; assay: STZ-s model, sucrose challenged low dosed Streptozotocin induced diabetic rats; format: in vivo, Male albino rats of Sprague Dawley strain; conditions: for STZ-s model % change 5 h / STZ-s model % change 24 h: dose 25 mg/kg
# Method: [formula] […] [B] (ii) STZ-s Procedure
# Male albino rats of Sprague Dawley strain of the body weight 160±20 g were selected for this study. Streptozotocin (Sigma, USA) was dissolved in 100 mM citrate buffer pH 4.5 and calculated amount of the fresh solution was injected to overnight fasted rats (45 mg./Kg.) intraperitonially. Blood was checked 48 hours later by glucosetrips and animals showing blood glucose values between 144 to 270 mg./dl. (8 to 15 mM) were included in the experiments and termed diabetic. The diabetic animals were divided into groups comprising 5 to 6 animals in each group. […] The animals of the control group were given an equal amount of 1.0% gum acacia. A sucrose load of the 2.5 g/Kg of the body weight was given after 30 minutes of the drug administration. After 30 minutes of the post sucrose load blood glucose level was again checked by glucostrips at 30, 60, 90, 120, 180, 240, 300 minutes and 24 hours respectively. […] The food but not the water was withheld from the cages during the experimentation. Comparing the AUC of experimental and control groups determined the percent of antihyperglycemic activity. Statistical comparison between groups was made by the Student's “t” test.
# dislipidemic hamster = assay: Antidyslipidemic activity in dislipidemic (high fat diet) hamster model;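 further: male golden Syrian hamsters on high fat diet for 10 days, oral treatment days 4–10, non-fasted plasma sampled on day 10, compared with vehicle-treated high fat diet controls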
# Method: Test Models used for the Evaluation of the Antidyslipidemic Activity:
# Male golden Syrian Hamsters weighing 120-130 g were divided into dyslipidemic and dislipidemic plus drug treated groups of the eight animals in each groups were used. Feeding with high fat diet (supplied by NOVO—NORDISK, Dennmark, Cat produced Dyslipidemia. No-99122211). Dislipidemic hamsters had free access to HFD and water ad-libitum. throughout the experiment for ten days. The test sample was fed orally at a dose of 250 mg./kg. from day-4 to day-10 (7 days) in the HFD hamsters. Normal hamsters fed with HFD and given drug vehicle only, served as control animals. Body weight of each animal and diet intake of each animal group was recorded daily to check the effect of the drug on food intake and body weight of the animals. At the end of the experiment i.e. on day 10th, the blood of non fasted animals were withdrawn in two sets of tubes in which one set contains 120 μl NaF (4.5 mg./ml) and after 15 min. in cold, plasma was separated. Biochemical analysis of plasma with out NaF was performed on the same day for Triglycerides (TG) total Cholesterol (TC) HDL-Cholesterol using enzymatic diagnostic kits. Similarly the plasma containing NaF Glucose was assayed for glucose, glycerol and free Fatty acids (FFA) on Synchron CX-5. Clinical System Beckmann Coulter Instrument.
# STZ injected rats = assay: STZ model, antihyperglycemic activity; format: in vivo, Sprague-Dauley [SD] strain male albino rats; conditions: dose 100 mg/kg
# Method: Drug metformate was administered half an hour before glucose was given. […] Statistical significance was done by AUC-method. [B] (i) STZ-Model Procedure Sprague-Dauley [SD] strain male albino rats of body weight 160±20 g were taken for study. Animals in 3 cage were kept for 7 days under standard experimental conditions before the experiment. Animals were given standard rat-pellet diet and tap-water ad-libitum. Day ‘0’-Day before experiment, animals were kept for overnight starvation. […] USA] was injected intraperitoneally to all the starved animals at a dose of 60 mg/kg, dissolved in 100 m M citrate buffer, pH 4.5. Day ‘2’ rats remained as such in the same conditions. Food pellets were removed on the penultimate day at 5:00 P.M. in the evening and animals were kept on over night starvation. […] Blood was taken from tail of the rats by stab-techniques and the glucose level was estimated using “Advantage Glucometer” of Boehringer Mannheim Co, USA. […] Group-I was kept only for control [STZ-injection were given only]. Group II were treated with STZ+test samples. […] [formula] The extract/fraction/compounds found active were statistically analyzed to determine area under curve [AUC] by plotting the blood-glucose values against time. [B] (ii) STZ-s Procedure
# db/db mice [2] = assay: db/db mice antihyperglycemic activity (day 6 post prandial, day 10 OGTT); format: in vivo, C57BL/KsBom-db mice
# Text: (§1) The db/db mouse is a well-characterized model of type-2 diabetes. The background for the db/db mouse is the C57BL/Ks strain. The major deficiency of the C57BL.Ks Bom-db mouse (db/db) is lack of a functional leptin receptor. This leads to defective leptin signaling and a complete lack of feedback from leptin. […] The db/db mouse develops NIDDM from around week 10. The disease is stable until week 20, where destruction of pancreatic β-cells can be recognized clinically as decreasing levels of plasma insulin and very severe […]. The db/db mouse has a maximal life span of 9-12 months. The advantage of using male mice for experimental purposes is that the fluctuations in plasma parameters are less than in females where the oestrogens cycle affects the clinical diabetes. The optimal age of db/db mice used for experiments will be from week-12 to 18 when they have developed NIDDM with diabetic dyslipidemia but still have functional β-cells in the pancreas. C57BL/KsBom-db mice 12-18 weeks, 40-50 g bred in the animal house of CDRI, Lucknow. 10 mice were housed in groups of (5 males and 5 females) were housed in groups of 5 individuals (same sex) in a room controlled for temperature (23±2.0° C.) and 12/12 hours light/dark cycle (light on 6.00AM.). Body weight was measured daily from day 1 to day 10. All animals had free access to fresh water and to normal chow except on the days of the post prandial protocol day 6 and during the overnight fast before the OGTT on day 10. The animals always had access to water during experimental periods. Blood glucose was checked every morning up till day 5. On day 6 post prandial protocol was employed, in this method blood glucose was checked at −0.5 h and 0 h. The test samples were given to the treatment group whereas vehicle received the only gum acacia (1.0%); the blood glucose was again checked at 1, 2, 3, 4 and 6 h posttest drug treatment. On day 8, blood was collected for serum insulin and lipid profile measurements and finally on day 10 an oral glucose tolerance test (OGTT) was performed after an overnight fasting. Blood glucose was measured at 0.0 min. post treatment, at this juncture glucose solution was given at a dose of 3 g./Kg. to all the groups including vehicle; the profile of blood glucose was checked at 30, 60, 90 and 120 minutes post glucose administration.
# Table-5-a represents the antihyperglycemic activity profile of 50% Aq.-EtOH extract and chloroform soluble fraction of the aq.-ethanolic extract and the standard drug Roziglitazone in hyperglycemic and hyperinsulinemic db/db mice. The results of the antidiabetic evaluations of the epicarp extracts/fractions/compounds in GLM and STZ models are given in table-1
# db/db mice [3] = assay: Anti-dislipidemic activity (lipid profile) in db/db mice; format: in vivo, C57BL/KsBom-db mice; conditions: dose 10 mg/Kg
# Text: as §1, with “The test samples were given to the treatment group whereas vehicle received the only gum acacia (1.0%); the blood glucose was again checked at 1, 2, 3, 4 and 6 h posttest drug treatment. On day 8, blood was collected for serum insulin and lipid profile measurements and finally on day 10 an oral glucose tolerance test (OGTT) was performed after an overnight fasting.” left out
compound,measurement,setting,value
"CN(C)C(=N)N=C(N)N [Metformin, reference compound]",STZ-s model % change 5 h,[1]; 5 h,−23.6** %
same,STZ-s model % change 24 h,[1]; 24 h,−26.5** %
same,% Antihyperglycemic activity 5 h,"[1]; dose 100 mg/Kg, 5 h",23.6* ** %
same,% Antihyperglycemic activity 24 h,"[1]; dose 100 mg/Kg, 24 h",26.5* * * %
Xyloccensin-E,CHOL (Cholesterol),dislipidemic hamster; dose 10 mg/kg,−18%
same,FFA (Free Fatty Acid),dislipidemic hamster; dose 10 mg/kg,−43* %
same,H/C (High density lipoprotein/cholesterol ratio),dislipidemic hamster; dose 10 mg/kg,−10%
same,HDL (High Density Lipoprotein),dislipidemic hamster; dose 10 mg/kg,−25%
same,TG (Triglycerides),dislipidemic hamster; dose 10 mg/kg,−22%
same,STZ-s model % change 5 h,[1]; 5 h,−6.91%
same,STZ-s model % change 24 h,[1]; 24 h,−0.34%
"CC(C)OC(=O)C(C)(C)Oc1ccc(C(=O)c2ccc(Cl)cc2)cc1 [Fenofibrate, reference compound]",CHOL (Cholesterol),dislipidemic hamster; dose 108.24 mg/kg (300 μmole),−18* %
same,FFA (Free Fatty Acid),dislipidemic hamster; dose 108.24 mg/kg (300 μmole),−20* %
same,GLU (Glucose),dislipidemic hamster; dose 108.24 mg/kg (300 μmole),−22%
same,GLY (Glycerol),dislipidemic hamster; dose 108.24 mg/kg (300 μmole),−36** %
same,H/C (High density lipoprotein/cholesterol ratio),dislipidemic hamster; dose 108.24 mg/kg (300 μmole),+10%
same,TG (Triglycerides),dislipidemic hamster; dose 108.24 mg/kg (300 μmole),−42* %
Photogedunin,% Activity in STZ-s model,[1]; dose 100 mg/Kg,+30.5%
CC(=O)O[C@@H]1C[C@H]2C(C)(C)C(=O)C=C[C@]2(C)[C@H]2CC[C@@]3(C)[C@H](c4ccoc4)OC(=O)[C@H]4O[C@]43[C@@]21C [Gedunin],CHOL (Cholesterol),dislipidemic hamster; dose 25 mg/kg,+14%
same,FFA (Free Fatty Acid),dislipidemic hamster; dose 25 mg/kg,−36*** %
same,GLU (Glucose),dislipidemic hamster; dose 25 mg/kg,−28*** %
same,GLY (Glycerol),dislipidemic hamster; dose 25 mg/kg,−22%
same,H/C (High density lipoprotein/cholesterol ratio),dislipidemic hamster; dose 25 mg/kg,+11%
same,HDL (High Density Lipoprotein),dislipidemic hamster; dose 25 mg/kg,+27* %
same,TG (Triglycerides),dislipidemic hamster; dose 25 mg/kg,−47*** %
same,activity in antidislipidemic hamster model,"dislipidemic hamster; hamster, in vivo",active
same,activity in STZ-s model,"[1]; rat, in vivo",active
same,In STZ model % lowering,STZ injected rats,10.5%
same,In STZ model % lowering,STZ injected rats; listed as gedunin,promising activity
CC[C@H](CC[C@@H](C)[C@H]1CC[C@H]2[C@@H]3CC=C4C[C@@H](O[C@@H]5O[C@H](CO)[C@@H](O)[C@H](O)[C@H]5O)CC[C@]4(C)[C@H]3CC[C@]12C)C(C)C [β-Sitosterol-β-D-glucoside],% Activity in STZ-s model,[1]; dose 100 mg/Kg,+10.1%
CN(CCOc1ccc(CC2SC(=O)NC2=O)cc1)c1ccccn1 (stereo not shown) [Roziglitazone],antidiabetic effect in db/db mice,db/db mice [2]; 10 mg/Kg,same order of activities
same,% Antihyperglycemic activity Day 6,"db/db mice [2]; dose 3.0 mg/Kg, Day 6",6.24* %
same,% Antihyperglycemic activity Day 10,"db/db mice [2]; dose 3.0 mg/Kg, Day 10",48.5* ** %
same,Antihyperglycemic activity Day 6,"db/db mice [2]; dose 10 mg/Kg, Day 6",−13.8 **
same,Antihyperglycemic activity Day 10,"db/db mice [2]; dose 10 mg/Kg, Day 10",−27.4 ***
same,Anti-dislipidemic activity CHOL,db/db mice [3],−5.5
same,Anti-dislipidemic activity HDL-C,db/db mice [3],+7.14
same,Anti-dislipidemic activity TG,db/db mice [3],−16.0
CCCCCCCCCCCCCCCC(=O)O [Palmitic acid],% Activity in STZ-s model,[1]; dose 100 mg/Kg,−5.6%
CC[C@H](CC[C@@H](C)[C@H]1CC[C@H]2[C@@H]3CC=C4C[C@@H](O)CC[C@]4(C)[C@H]3CC[C@]12C)C(C)C [β-Sitosterol],FFA (Free Fatty Acid),dislipidemic hamster; dose 25 mg/kg,−38*** %
same,GLY (Glycerol),dislipidemic hamster; dose 25 mg/kg,−14%
same,H/C (High density lipoprotein/cholesterol ratio),dislipidemic hamster; dose 25 mg/kg,−7%
same,HDL (High Density Lipoprotein),dislipidemic hamster; dose 25 mg/kg,−5%
same,TG (Triglycerides),dislipidemic hamster; dose 25 mg/kg,−7%
same,STZ-s model % change 5 h,[1]; 5 h,Nil
same,STZ-s model % change 24 h,[1]; 24 h,Nil
Xyloccensin-I,FFA (Free Fatty Acid),dislipidemic hamster; dose 25 mg/kg,−17%
same,GLY (Glycerol),dislipidemic hamster; dose 25 mg/kg,−5%
same,H/C (High density lipoprotein/cholesterol ratio),dislipidemic hamster; dose 25 mg/kg,−7%
same,HDL (High Density Lipoprotein),dislipidemic hamster; dose 25 mg/kg,−5%
same,STZ-s model % change 5 h,[1]; 5 h,Nil
same,STZ-s model % change 24 h,[1]; 24 h,Nil
